US5116858A, “4-imidazoline derivatives” (Mitsubishi Kasei Corporation, priority 1989, dated 1992)

How the values were obtained:
[1] = test system: cytotoxicities caused by active oxygen species; settings: background; cited from earlier work
[2] = test system: peroxidized lipid in rat brain homogenate; experiment: Lipoperoxidation inhibitory activity in brain homogenate (TBA method); format: biochemical, Wistar male rats; settings: 30 minutes at 37° C., final conc. 0.3-100 μM, read-out: Anti-lipoperoxidation Activity IC50
Procedure: Brain homogenate was prepared using Wistar male rats in accordance with the following procedure. […] A polyethylene tube was inserted into the aorta through the left ventricle, and fixed. Brain perfusion was conducted using ice-cooled 50 mM phosphate buffered saline (PBS), pH 7.4, through the tube, and whole brain was extracted. After removal of the cerebellum, the cerebrum was weighed while wet and homogenated by a Teflon homogenizer under ice-cooling, after addition of nine-fold by weight of PBS. The resultant homogenate was centrifuged at 4° C. (2200 r.p.m., 10 minutes), and an aliquot of the supernatant (0.3 ml) was placed in a light-resistant test tube with ground stopper and used for the following test.
To the brain homogenate obtained above were added PBS (0.6 ml) and an ethanol solution (10 μl) containing a predetermined amount of a test compound. Thus, each of the ethanol solutions was prepared so that the final concentration of the compound was 0.3-100 μM. The mixture was allowed to warm for 30 minutes at 37° C. (external bath temperature). […] (2600 r.p.m., 10 minutes). The resultant supernatant was used in the following quantitative analysis.
The aqueous mixture was heated in a boiling-water bath for 60 minutes and cooled rapidly. Distilled water (1.0 ml) and a mixture of pyridine and butanol (1:15) (5.0 ml) were added to the cooled mixture, and the latter was shaken for 30 seconds and centrifuged (3000 r.p.m., 10 minutes). The supernatant was used as a test sample for quantitative analysis of peroxidized lipid as mentioned below.

mice = experiment: Passive avoidance response test (memory-improving activity, cycloheximide-treated mice); format: in vivo; settings: Mus musculus; oral, 15 mice per group, cycloheximide 120 mg/kg s.c., latent time; read-out: Memory-Improving Activity, Minimum Effective Dose
Procedure: Passive avoidance response test was conducted in mice (15 animals per group) using light-dark differential apparatus of step-down type. The apparatus consisted of a dark room made of black and rigid vinylidene chloride resin [30 cm (depth)×30 cm (width)×31 cm (height)] and a light room, as an adjacent room, made of transparent rigid vinylidene chloride resin. The floor of the light room was set 2 cm higher than the grid surface of the dark room (step down type), and there was a guillotine door between the rooms. The animals were placed in the apparatus and acclimatized before test, and latent time for moving from the light room to the dark room was determined.
The acclimatized animals subcutaneously received 120 mg/kg of cycloheximide (Sigma) dissolved in physiological saline. After 30 minutes of the administration, the animals were placed in the light room. Immediatly after the movement of the animals to the dark room, electric current was applied on the grid (0.5 mA, 3 seconds), which gave the animals "aquired behavior". After 24 hours of the establishment of the aquired behavior, a test compound suspended in 1% tragacanth was administered orally to the animals, which were then returned to the light room. Control animals received only 1% tragacanth. The latent time until an individual animal started to move to the dark room was determined.

Acute toxicity, oral = settings: rat, in vivo, SD rats, seven-day observation
Procedure: Compounds of the invention suspended in 1% tragacanth was orally administered to SD rats (both male and female) and mortality (LD50) was determined after seven-day observation.

[3] = background, Iyakuhin Kenkyu 16, 1 (1985); cited from earlier work

Compound	activity as inhibitory agent for cytotoxicities (in words) [1]	IC50 [2] [µM]	minimal effective dose (mice) [mg/kg]	LD50 at 168 h (Acute toxicity, oral) [mg/kg]	inhibitory action on CNS (in words) [3]
Vitamin E	very limited in their activities				
CCCCc1ccc(-c2c(C)[nH]c(=O)n2Cc2ccccc2)cc1 [Compound No. 137, 1-Benzyl-5-(4'-n-butylphenyl)-4-methyl-4-imidazolin-2-one]		12.4	0.1	> 1000	
CCCCc1ccc(-c2c(C)[nH]c(=O)n2C)cc1 [Compound No. 2, 5-(4'-n-Butylphenyl)-1,4-dimethyl-4-imidazolin-2-one]		10.7	0.1	> 1000	
Cc1[nH]c(=O)n(C)c1-c1ccc(C2CCCCC2)cc1 [compound 8]		10	0.1	> 1000	
Cc1[nH]c(=O)n(C)c1-c1ccc(-c2ccccc2)cc1 [compound 16]		6.3	0.3	> 1000	
CCCCOc1ccc(-c2c(C)[nH]c(=O)n2C)cc1 [compound 18]		5.1	0.3		
CCN(CC)Cc1nccn1-c1ccc([N+](=O)[O-])cc1C(=O)c1ccccc1Cl [nizofenone]					strong inhibitory action on CNS
Cc1[nH]c(=O)n(C2CCCCC2)c1-c1ccc(OC(C)C)cc1 [compound 109]		13	0.1		
O=C1O[C@H]([C@@H](O)CO)C(O)=C1O [Vitamin C]	very limited in their activities				
